Series [1] in a line: Solution levels of terpenes in water (true solution by shear blending). It counts as physicochemical. The following applies: maximum level solubilized in water by solution-forming shear blending.
The subject of another series is root-knot nematodes. Nature of the series: Nematicidal activity of high purity versus low purity citral. The note with it: average of four replicates. It counts as in vivo, root-knot nematode. Here is the method:
Compositions of regular and technical ciral at 250 and 125 ppm were produced in 1% Tween 80 and incubated with root-knot nematodes a in the same way as previously described. Observations of the kill rate (percentage dead) were made at 21 and 42 hours.
The results are shown below in Table 13 and are the average of four replicates.

Series [2] in a line: Terpene stability: yellow colored oxidation product (colour of encapsulated terpene pellet). Type of series: physicochemical. Set-up: key to Colour: W = white; Y = yellow; sl = slight; int = intermediate. Here is the method:
Loading reactions were set up as shown in Table 25 and left to incubate overnight. Samples were centrifuged at 14,000×g for 10 minutes and the appearance of free terpene floating on the aqueous layer and the color of the encapsulated terpenes in the pellet was scored. The highest volume of terpene absorbed by particles as evidenced by the absence of free terpene was recorded as the volume of absorbed terpene emulsion. The reactions were incubated for 1, 3, 6, 9 and 24 hours at room temperature or 37° C. After incubation samples were centrifuged at 14,000×g for 10 minutes and the appearance of free terpene floating on the aqueous layer was scored. The highest volume of terpene absorbed by the particles as evidenced by the absence of free terpene was recorded as the volume of absorbed terpene emulsion. Colour of the encapsulated pellet was scored at 24 hours. Increasing volumes of terpene emulsion were mixed with 250 mg/ml Baker's YP or 250 mg/ml SAF Mannan™ overnight at room temperature as shown in Tables 27 and 28. Samples were centrifuged at 14,000×g for 10 minutes and the appearance of free terpene floating on the aqueous layer was scored. The highest volume of terpene emulsion absorbed by Baker's YP or SAF Mannan™ as evidenced by the absence of free terpene was recorded as the volume of absorbed terpene emulsion. Colour of encapsulated terpenes in the pellet was recorded.

Series [3] is described as follows: Baker's YP loading of different terpenes and terpene mixtures. It counts as physicochemical. The note with it: for Free Terpene: Baker's YP 250 mg/ml 500 μl; for Vol. Loaded μl: approximate maximal terpene loading in Baker's YP; for % Loaded w/w: maximal loading in Baker's YP, ratio of terpene loaded to particle present, weight for weight. The arrangement: key to Free Terpene: +: “free terpene” refers to the visible presence of terpene in the centrifuged reaction mixture; −: The absence of free terpene indicates complete absorption of the terpene by the particles. Here is the method: (§1) Increasing volumes of terpene emulsion were mixed with 250 mg/ml Baker's YP or 250 mg/ml SAF Mannan™ overnight at room temperature as shown in Tables 27 and 28. Samples were centrifuged at 14,000×g for 10 minutes and the appearance of free terpene floating on the aqueous layer was scored. The highest volume of terpene emulsion absorbed by Baker's YP or SAF Mannan™ as evidenced by the absence of free terpene was recorded as the volume of absorbed terpene emulsion. Colour of encapsulated terpenes in the pellet was recorded.
(§2) Percentage loaded represents a ratio of the amount of terpene loaded to the amount of particle present (weight for weight).

A short description of series [4]: SAF Mannan loading of different terpenes and terpene mixtures. Type of series: physicochemical. Set-up: key to Free Terpene: +: “free terpene” refers to the visible presence of terpene in the centrifuged reaction mixture; −: The absence of free terpene indicates complete absorption of the terpene by the particles; key to Free Terpene: phase inversion remark: Inverted = Phase Inverted - solids floating on top - no free oil; W = white; Y = yellow. The following applies: for Free Terpene: SAF Mannan 500 μl (250 mg/ml), overnight, room temperature; for Vol. loaded (maximal terpene loading in SAF Mannan): approximate maximal loading, volume of terpene emulsion absorbed by SAF Mannan; for % Loaded w/w (maximal terpene loading in SAF Mannan): ratio of amount of terpene loaded to amount of particle present (weight for weight); for Free Terpene: phase inversion remark: SAF Mannan 500 μl, second line of the Free Terpene cell. Here is the method: as §1, §2

[5] abbreviates: Table 27, Baker's YP, emulsion 15 μl.
[6] abbreviates: Table 27, Baker's YP, emulsion 37.5 μl.
The mark [7] stands for this setting: Table 27, Baker's YP, emulsion 75 μl.
Where [8] appears, read: Table 27, Baker's YP, emulsion 112.5 μl.
[9] abbreviates: Table 27, Baker's YP, emulsion 150 μl.
Where [10] appears, read: Table 27, Baker's YP, emulsion 225 μl.
The mark [11] stands for this setting: Table 27, Baker's YP, emulsion 450 μl.
Setting [12] is: colour of encapsulated terpene in pellet, SAF Mannan 500 μl, terpene emulsion vol 15.
The mark [13] stands for this setting: colour of encapsulated terpene in pellet, SAF Mannan 500 μl, terpene emulsion vol 37.5.
Where [14] appears, read: colour of encapsulated terpene in pellet, SAF Mannan 500 μl, terpene emulsion vol 75.
[15] abbreviates: colour of encapsulated terpene in pellet, SAF Mannan 500 μl, terpene emulsion vol 112.5.
Where [16] appears, read: colour of encapsulated terpene in pellet, SAF Mannan 500 μl, terpene emulsion vol 150.
Setting [17] is: colour of encapsulated terpene in pellet, SAF Mannan 500 μl, terpene emulsion vol 225.
Setting [18] is: colour of encapsulated terpene in pellet, SAF Mannan 500 μl, terpene emulsion vol 450.
Setting [19] is: emulsion 15 μl, 1% Tween-80 485 μl.
The mark [20] stands for this setting: emulsion 37.5 μl, 1% Tween-80 462.5 μl.
[21] abbreviates: emulsion 75 μl, 1% Tween-80 425 μl.
Setting [22] is: emulsion 150 μl, 1% Tween-80 350 μl.
The mark [23] stands for this setting: emulsion 225 μl, 1% Tween-80 275 μl.
Where [24] appears, read: emulsion 450 μl, 1% Tween-80 50 μl.
Where [25] appears, read: terpene emulsion vol 15, 1% Tween-80 485 μl.
[26] abbreviates: terpene emulsion vol 37.5, 1% Tween-80 462.5 μl.
[27] abbreviates: terpene emulsion vol 75, 1% Tween-80 425 μl.
Where [28] appears, read: terpene emulsion vol 150, 1% Tween-80 350 μl.
Where [29] appears, read: terpene emulsion vol 225, 1% Tween-80 275 μl.
[30] abbreviates: terpene emulsion vol 450, 1% Tween-80 50 μl.

The results in this text go back to patent US10729130B2, “Nematicidal compositions and methods of using them” (Eden Research plc, priority 2004, dated 2020).

As for `CC(=O)/C=C/C1=C(C)CCCC1(C)C` [b-ionone], in series [1], the “Solution Level” value is 500 ppm.
The same measure, in the same setting: for Terpeniol the value was 500 ppm; for `C=C(C)C1CC=C(C)C(=O)C1` (stereo not shown) [Carvone], 500 ppm.
On to `CC(C)=CCCC(C)=CC=O` [Citral (98% pure), citral], for which the average percentage dead in the series with root-knot nematodes (125 ppm in 1% Tween 80, 21 h) is listed as 23%; in the series with root-knot nematodes (125 ppm in 1% Tween 80, 42 h), 22%; in the series with root-knot nematodes (250 ppm in 1% Tween 80, 21 h), 87%; in the series with root-knot nematodes (250 ppm in 1% Tween 80, 42 h), 87%.
`C=CCc1ccc(O)c(OC)c1` [Eugenol]: the Colour result in series [2] (setting [5]), in series [2] (setting [6]), in series [2] (setting [7]), in series [2] (setting [8]), in series [2] (setting [9]) and in series [2] (setting [10]) was “W” each time. Also, the Colour result in series [2] (setting [11]), in series [2] (setting [12]), in series [2] (setting [13]), in series [2] (setting [14]), in series [2] (setting [15]) and in series [2] (setting [16]) was “W” throughout. The Colour entry in series [2] (setting [17]) and in series [2] (setting [18]) was “W” each time. Besides, the “Free Terpene” value in series [3] (setting [19]) is “−”; in series [3] (setting [20]), “−”; in series [3] (setting [21]) it was “−”; in series [3] (setting [22]) it was “+”; in series [3] (setting [23]), “+”; in series [3] (setting [24]), “+”. Also, the “Free Terpene” value in series [4] (setting [25]) is recorded as “−”; in series [4] (setting [26]), “−”; in series [4] (setting [27]), “−”; in series [4] (setting [28]) it was “+”; in series [4] (setting [29]), “+”; in series [4] (setting [30]), “+”. The “Vol. Loaded μl” value in series [3] came out at 75 µL. In series [3], the “% Loaded w/w” value worked out at 67% w/w. In series [4], the “Vol. loaded (maximal terpene loading in SAF Mannan)” value stood at 112.5 µL. Besides, the “% Loaded w/w (maximal terpene loading in SAF Mannan)” value in series [4] worked out at 100% w/w.
On to `CC(C)=CCC/C(C)=C/CO` [Geraniol], for which the Colour result in series [2] (setting [5]), in series [2] (setting [6]), in series [2] (setting [7]), in series [2] (setting [8]), in series [2] (setting [9]) and in series [2] (setting [10]) was “W” each time. Further, the Colour entry in series [2] (setting [11]), in series [2] (setting [12]), in series [2] (setting [13]), in series [2] (setting [14]), in series [2] (setting [15]) and in series [2] (setting [16]) was “W” throughout. Also, the Colour entry in series [2] (setting [17]) and in series [2] (setting [18]) was “W” each time. Moreover, the “Free Terpene” value in series [3] (setting [19]) is “−”; in series [3] (setting [20]) it was “−”; in series [3] (setting [21]) it was “−”; in series [3] (emulsion 112.5 μl, 1% Tween-80 387.5 μl) it was “+”; in series [3] (setting [22]), “+”; in series [3] (setting [23]) it was “+”. In addition, the “Free Terpene” value in series [3] (setting [24]) is recorded as “+”; in series [4] (setting [25]) it was “−”; in series [4] (setting [26]), “−”; in series [4] (setting [27]) it was “−”; in series [4] (terpene emulsion vol 112.5, 1% Tween-80 387.5 μl), “−”; in series [4] (setting [28]), “−”. Also, the “Free Terpene” value in series [4] (setting [29]) is “−”; in series [4] (setting [30]) it was “+”. For the same molecule, the “Vol. Loaded μl” value in series [3] came out at 75 µL. Further, in series [3], the “% Loaded w/w” value turned out to be 67% w/w. The “Solution Level” value in series [1] was 500 ppm. The “Free Terpene: phase inversion remark” value in series [4] (terpene emulsion vol 225) and in series [4] (terpene emulsion vol 450) was “Inverted” throughout. In addition, the “Vol. loaded (maximal terpene loading in SAF Mannan)” value in series [4] came out at 150 µL. The “% Loaded w/w (maximal terpene loading in SAF Mannan)” value in series [4] worked out at 133% w/w.
For `CC(C)=CCCC(C)=CC=O` [Citral (80% pure), citral], the average percentage dead with root-knot nematodes (125 ppm in 1% Tween 80, 21 h) is reported as 29%; in the series with root-knot nematodes (125 ppm in 1% Tween 80, 42 h), 27%; in the series on root-knot nematodes (250 ppm in 1% Tween 80, 21 h), 89%; with root-knot nematodes (250 ppm in 1% Tween 80, 42 h), 96%.
